For five compounds, relative viability results are on record in the supplement of paper PMC10307832.

The subject of the first assay is COR-L23. Description: relative viability (nuclei count vs DMSO), 5 days (fraction); higher = more cells survive. The conditions noted are these: first compound 0.8 µM. The method in brief:
(§1)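 Relative viability was taken as the ratio of nuclei in treated wells to nuclei in vehicle wells. Lung cancer cell lines in 1536-well plates received compounds by pin tool one day after seeding, either one drug alone or a fixed anchor-drug dose plus five library-drug doses (not always all listed) in √10 steps. Nuclei were counted on 4× images after 5 days of treatment, and values are medians of duplicate plates.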
`CCCCCCCCCCCC1=C(O)C(=O)C=C(O)C1=O` [Embelin] + O=C(CCCCCCC(=O)Nc1ccccc1)NO [Vorinostat] (partner 1 µM) showed a relative viability of 0.559.
Still for that read-out and setting: then `CCCCCCCCCCCC1=C(O)C(=O)C=C(O)C1=O` [Embelin] + C[C@]1(O)C[C@@H](c2nc(-c3ccc4ccc(-c5ccccc5)nc4c3)c3c(N)nccn32)C1 [Linsitinib] (partner 1 µM), with 1.08; and `CCCCCCCCCCCC1=C(O)C(=O)C=C(O)C1=O` [Embelin] + CC(C)C[C@H](NC(=O)[C@H](Cc1ccccc1)NC(=O)c1cnccn1)B(O)O [Bortezomib] (partner 0.002 µM), with 1.1; and `CCCCCCCCCCCC1=C(O)C(=O)C=C(O)C1=O` [Embelin] + CS(=O)(=O)CCNCc1ccc(-c2ccc3ncnc(Nc4ccc(OCc5cccc(F)c5)c(Cl)c4)c3c2)o1 [Lapatinib] (partner 2 µM), with 0.966.
On the same count and under the same terms, the value for `CCCCCCCCCCCC1=C(O)C(=O)C=C(O)C1=O` [Embelin] + C[C@@H](Oc1cc(-c2cnn(C3CCNCC3)c2)cnc1N)c1c(Cl)ccc(F)c1Cl [Crizotinib] (partner 1 µM) was 0.762.

Staying with this assay, now noted: first compound 2.53 µM.
In turn, `CCCCCCCCCCCC1=C(O)C(=O)C=C(O)C1=O` [Embelin] + O=C(CCCCCCC(=O)Nc1ccccc1)NO [Vorinostat] (partner 1 µM) yielded a relative viability of 0.386.
Turning to `CCCCCCCCCCCC1=C(O)C(=O)C=C(O)C1=O` [Embelin] + C[C@]1(O)C[C@@H](c2nc(-c3ccc4ccc(-c5ccccc5)nc4c3)c3c(N)nccn32)C1 [Linsitinib] (partner 1 µM), the relative viability was found to be 0.962.
In the case of `CCCCCCCCCCCC1=C(O)C(=O)C=C(O)C1=O` [Embelin] + CC(C)C[C@H](NC(=O)[C@H](Cc1ccccc1)NC(=O)c1cnccn1)B(O)O [Bortezomib] (partner 0.002 µM), the relative viability was determined as 1.21.
Same read-out and setting: the value for `CCCCCCCCCCCC1=C(O)C(=O)C=C(O)C1=O` [Embelin] + CS(=O)(=O)CCNCc1ccc(-c2ccc3ncnc(Nc4ccc(OCc5cccc(F)c5)c(Cl)c4)c3c2)o1 [Lapatinib] (partner 2 µM) was 1.34; that for `CCCCCCCCCCCC1=C(O)C(=O)C=C(O)C1=O` [Embelin] + C[C@@H](Oc1cc(-c2cnn(C3CCNCC3)c2)cnc1N)c1c(Cl)ccc(F)c1Cl [Crizotinib] (partner 1 µM) was 0.701.

Staying with this assay, now noted: first compound 8 µM.
For `CCCCCCCCCCCC1=C(O)C(=O)C=C(O)C1=O` [Embelin] + O=C(CCCCCCC(=O)Nc1ccccc1)NO [Vorinostat] (partner 1 µM), the relative viability is 0.492.
On the same count and under the same terms, then `CCCCCCCCCCCC1=C(O)C(=O)C=C(O)C1=O` [Embelin] + C[C@]1(O)C[C@@H](c2nc(-c3ccc4ccc(-c5ccccc5)nc4c3)c3c(N)nccn32)C1 [Linsitinib] (partner 1 µM), with 1.05; and `CCCCCCCCCCCC1=C(O)C(=O)C=C(O)C1=O` [Embelin] + CC(C)C[C@H](NC(=O)[C@H](Cc1ccccc1)NC(=O)c1cnccn1)B(O)O [Bortezomib] (partner 0.002 µM), with 1.21; and `CCCCCCCCCCCC1=C(O)C(=O)C=C(O)C1=O` [Embelin] + CS(=O)(=O)CCNCc1ccc(-c2ccc3ncnc(Nc4ccc(OCc5cccc(F)c5)c(Cl)c4)c3c2)o1 [Lapatinib] (partner 2 µM), with 1.09.
Same read-out and setting: the value for `CCCCCCCCCCCC1=C(O)C(=O)C=C(O)C1=O` [Embelin] + C[C@@H](Oc1cc(-c2cnn(C3CCNCC3)c2)cnc1N)c1c(Cl)ccc(F)c1Cl [Crizotinib] (partner 1 µM) was 0.745.

Another assay relates to EPLC-272H. The description is as above. The conditions noted are these: first compound 0.08 µM. Summed up: as §1
`CCCCCCCCCCCC1=C(O)C(=O)C=C(O)C1=O` [Embelin] + O=C(CCCCCCC(=O)Nc1ccccc1)NO [Vorinostat] (partner 1 µM) showed a relative viability of 0.372.
The same measure, in the same setting: the value for `CCCCCCCCCCCC1=C(O)C(=O)C=C(O)C1=O` [Embelin] + C[C@]1(O)C[C@@H](c2nc(-c3ccc4ccc(-c5ccccc5)nc4c3)c3c(N)nccn32)C1 [Linsitinib] (partner 1 µM) was 1.31; that for `CCCCCCCCCCCC1=C(O)C(=O)C=C(O)C1=O` [Embelin] + CC(C)C[C@H](NC(=O)[C@H](Cc1ccccc1)NC(=O)c1cnccn1)B(O)O [Bortezomib] (partner 0.002 µM) was 0.804.
In turn, `CCCCCCCCCCCC1=C(O)C(=O)C=C(O)C1=O` [Embelin] + CS(=O)(=O)CCNCc1ccc(-c2ccc3ncnc(Nc4ccc(OCc5cccc(F)c5)c(Cl)c4)c3c2)o1 [Lapatinib] (partner 2 µM) returned a relative viability of 0.899.
The same measure, in the same setting: the value for `CCCCCCCCCCCC1=C(O)C(=O)C=C(O)C1=O` [Embelin] + C[C@@H](Oc1cc(-c2cnn(C3CCNCC3)c2)cnc1N)c1c(Cl)ccc(F)c1Cl [Crizotinib] (partner 1 µM) was 0.802.

The same assay, now with this note: first compound 0.8 µM.
For `CCCCCCCCCCCC1=C(O)C(=O)C=C(O)C1=O` [Embelin] + O=C(CCCCCCC(=O)Nc1ccccc1)NO [Vorinostat] (partner 1 µM), the relative viability turned out to be 0.62.
Compound `CCCCCCCCCCCC1=C(O)C(=O)C=C(O)C1=O` [Embelin] + C[C@]1(O)C[C@@H](c2nc(-c3ccc4ccc(-c5ccccc5)nc4c3)c3c(N)nccn32)C1 [Linsitinib] (partner 1 µM) showed a relative viability of 1.48.
The same measure, in the same setting: then `CCCCCCCCCCCC1=C(O)C(=O)C=C(O)C1=O` [Embelin] + CC(C)C[C@H](NC(=O)[C@H](Cc1ccccc1)NC(=O)c1cnccn1)B(O)O [Bortezomib] (partner 0.002 µM), with 1.07.
Still for that read-out and setting: then `CCCCCCCCCCCC1=C(O)C(=O)C=C(O)C1=O` [Embelin] + CS(=O)(=O)CCNCc1ccc(-c2ccc3ncnc(Nc4ccc(OCc5cccc(F)c5)c(Cl)c4)c3c2)o1 [Lapatinib] (partner 2 µM), with 1.38.
Compound `CCCCCCCCCCCC1=C(O)C(=O)C=C(O)C1=O` [Embelin] + C[C@@H](Oc1cc(-c2cnn(C3CCNCC3)c2)cnc1N)c1c(Cl)ccc(F)c1Cl [Crizotinib] (partner 1 µM) came in with a relative viability of 1.08.

The same assay, now with this note: first compound 2.53 µM.
Consider `CCCCCCCCCCCC1=C(O)C(=O)C=C(O)C1=O` [Embelin] + O=C(CCCCCCC(=O)Nc1ccccc1)NO [Vorinostat] (partner 1 µM), for which the relative viability stood at 0.471.
Same read-out and setting: then `CCCCCCCCCCCC1=C(O)C(=O)C=C(O)C1=O` [Embelin] + C[C@]1(O)C[C@@H](c2nc(-c3ccc4ccc(-c5ccccc5)nc4c3)c3c(N)nccn32)C1 [Linsitinib] (partner 1 µM), with 1.32; and `CCCCCCCCCCCC1=C(O)C(=O)C=C(O)C1=O` [Embelin] + CC(C)C[C@H](NC(=O)[C@H](Cc1ccccc1)NC(=O)c1cnccn1)B(O)O [Bortezomib] (partner 0.002 µM), with 1.17.
